27 compounds from US20100197714A1, “SPIRO-PYRANO-PYRAZOLE DERIVATIVES” (priority 2007, published 2010) can be followed below.

One test concerns the target T1, σ2-receptor (Rattus norvegicus, UniProt Q5U3Y7).
T1 construct: the σ2-Receptorpreparation was prepared from rat liver; from tissue; host or cells: rat liver membrane homogenate
T1 sequence (Q5U3Y7 1-176): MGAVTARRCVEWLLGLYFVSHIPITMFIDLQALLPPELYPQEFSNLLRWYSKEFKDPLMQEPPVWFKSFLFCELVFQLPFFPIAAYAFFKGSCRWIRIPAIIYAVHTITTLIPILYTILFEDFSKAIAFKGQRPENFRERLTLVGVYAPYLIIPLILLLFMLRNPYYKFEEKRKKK
The experiment in a line: Sigma 2 (Version B) radioligand binding, [3H]-ditolylguanidine, rat liver preparation, σ1 sites masked with (+)-pentazocine. The conditions noted are these: for inhibition at 1 µM: compound at 1 μM; for Ki: [3H]-ditolylguanidine 3 nM. Here is the method:
In brief the σ2-Receptorpreparation was prepared from rat liver. The livers were homogenized in 5 to 6 times of volume sucrose solution (0.32M) and homogenized. The homogenate was centrifuged at 2900 rpm, 4° C., 10 min). the supernatant was centrifuged again (31000×g, 4° C., 20 min). The pellet was resuspended in TRIS-buffer, incubated for 30 min at room temperature while stirring and centrifuged f (31000×g, 4° C., 20 min). The pellet was resuspended in cold TRIS-buffer pH 8 and homogenized. Then the protein content was measured (approx. 2 mg/mL) and the homogenate frozen at −80° C. for later use.
The radioligand used was [^3H]-Ditolylguanidin in TRIS-buffer pH 8. The σ1-receptor binding sites were masked through (+)-Pentazocin-solution in TRIS-Puffer pH 8.
In a volume of 200 μL 50 μL compound solution of varying concentration, 50 μL (+)-Pentazocin-solution (2 μM; resulting in 500 nM in the assay), 50 μL radioligand-solution (12 nM; resulting in 3 nM in the assay) and finally 50 μL of receptor preparation (approx. 2 mg/mL) were given into a well of a microplate equipped with a filter. The plate was closed and stirred for 2 h at room temperature and 500 rpm. Following that the solvents were removed by a harvester through the filter. After rinsing with H2O the filter was measured in a scintillation counter ([^3H]-protocol).

The target in test [1] is T2, σ1-receptor (Cavia porcellus, UniProt Q60492). The experiment in a line: Sigma 1 (Version B) radioligand binding, [3H]-(+)-pentazocine, guinea pig brain preparation. Also on record: the σ1-receptor preparation was prepared from guinea pig brain; from tissue; host or cells: guinea pig brain membrane homogenate. Here is the method:
In brief the σ1-receptor preparation was prepared from guinea pig brain. The brains were homogenized in 5 to 6 times of volume sucrose solution (0.32M) and homogenized. The homogenate was centrifuged at 2900 rpm, 4° C., 10 min). the supernatant was centrifuged again (23500×g, 4° C., 20 min). The pellet was resuspended in Tris-buffer, incubated for 30 min at room temperature and centrifuged f (23500×g, 4° C., 20 min). The pellet was resuspended in cold TRIS-buffer and homogenized. Then the protein content was measured (approx. 1.5 mg/mL) and the homogenate frozen at −80° C. for later use.
The radioligand used was […]-(+)-Pentazocin in TRIS-buffer. In a volume of 200 μL 50 μL TRIS-buffer, 50 μL compound solution of varying concentration, 50 μL radioligand-solution (8 nM; resulting in 2 nM in the assay) and finally 50 μL of receptor preparation (approx. 1.5 mg/mL) were given into a well of a microplate equipped with a filter. The plate was closed and stirred for 2.5 h at 37° C. and 500 rpm. Following that the solvents were removed by a harvester through the filter. After rinsing with H2O the filter was measured in a scintillation counter ([^3H]-protocol).

Test [2] deals with T2, σ1-receptor. As to the kind of experiment: Sigma-1 (Version A) radioligand binding, [3H](+)-pentazocine, guinea pig brain membranes.
Procedure: Brain membrane preparation and binding assays for the σ1-receptor were performed as described (DeHaven-Hudkins et al., 1992) with some modifications. In brief, guinea pig brains were homogenized in 10 vols. […] The homogenate was centrifuged at 1000 g for 10 min at 4° C. and the supernatants collected and centrifuged again at 48000 g for 15 min at 4° C.
Each assay tube contained 10 μL of [^3H](+)-pentazocine (final concentration of 0.5 nM), 900 μL of the tissue suspension to a final assay volume of 1 mL and a final tissue concentration of approximately 30 mg tissue net weight/mL. […] All tubes were incubated at 37° C. for 150 min before termination of the reaction by rapid filtration over Schleicher & Schuell GF 3362 glass fibre filters [previously soaked in a solution of 0.5% polyethylenimine for at least 1 h]. […] Following addition of scintillation cocktail, the samples were allowed to equilibrate overnight. The amount of bound radioactivity was determined by liquid scintillation spectrometry using a Wallac Winspectral 1414 liquid scintillation counter.
The mark [3] stands for this setting: version B, guinea pig brain, [3H]-(+)-pentazocine 2 nM, read-out: Binding σ1 Ki.

T2 sequence (Q60492 whole entry): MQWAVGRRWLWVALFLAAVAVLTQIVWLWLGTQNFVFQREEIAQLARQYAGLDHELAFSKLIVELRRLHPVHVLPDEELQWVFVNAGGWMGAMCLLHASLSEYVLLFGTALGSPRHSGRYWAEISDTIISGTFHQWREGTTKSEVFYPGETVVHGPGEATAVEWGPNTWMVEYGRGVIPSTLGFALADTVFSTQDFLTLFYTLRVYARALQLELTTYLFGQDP

A word on the inhibition: it is the share of the control response that was lost under treatment. Read a low inhibition as a response near the control. In general, Ki refers to the dissociation constant of the complex between target and ligand, obtained from inhibition or displacement. Take `COC1OC2(CCNCC2)c2cnn(-c3ccccc3)c21` (centres unmarked) [Example 2, 6′-Methoxy-1′-phenyl-4′,6′-dihydro-1′H-spiro[piperidin-4,4′-furo[3,4-c]pyrazole]]: at 1 µM the inhibition on σ2-receptor was 12%. Moreover, the inhibition constant (Ki) on σ1-receptor [1] (setting [3]) is 1200 nM.
As to `COC1OC2(CCN(Cc3ccccc3)CC2)c2cnn(-c3ccccc3)c21` (centres unmarked) [Example 3, 1-Benzyl-6′-methoxy-1′-phenyl-4′,6′-dihydro-1′H-spiro[piperidin-4,4′-furo[3,4-c]pyrazole]], the figures for the Ki on σ2-receptor and on σ1-receptor [2] were 1750 nM and 2.7 nM, respectively.
The compound `COC1Cc2c(cnn2-c2ccccc2)C2(CCN(Cc3ccccc3)CC2)O1` (centres unmarked) [Example 5, 1-Benzyl-6′-methoxy-1′-phenyl-6′,7′-dihydro-1′H-spiro[piperidin-4,4′-pyrano[4,3-c]pyrazole]] gave an inhibition at 1 µM on σ2-receptor of 22%. The compound also returned an inhibition constant (Ki) at σ1-receptor [1] of 1.46 nM.
Compound `CCCN1CCC2(CC1)OC(OC)Cc1c2cnn1-c1ccccc1` (centres unmarked) [Example 7, 6′-Methoxy-1′-phenyl-1-propyl-6′,7′-dihydro-1′H-spiro[piperidin-4,4′-pyrano[4,3-c]pyrazole]] yielded a Ki at σ2-receptor of 3030 nM.
For the compound `CCCCN1CCC2(CC1)OC(OC)Cc1c2cnn1-c1ccccc1` (centres unmarked) [Example 9, 1-Butyl-6′-methoxy-1′-phenyl-6′,7′-dihydro-1′H-spiro[piperidin-4,4′-pyrano[4,3-c]pyrazole]], the Ki on σ2-receptor is 752 nM; at σ1-receptor [1] it was 8.04 nM.
Turning to `CCCCCN1CCC2(CC1)OC(OC)Cc1c2cnn1-c1ccccc1` (centres unmarked) [Example 11, 6′-Methoxy-1-pentyl-1′-phenyl-6′,7′-dihydro-1′H-spiro[piperidin-4,4′-pyrano[4,3-c]pyrazole]], the Ki is 340 nM at σ2-receptor and 0.82 nM at σ1-receptor [1].
The like results for `COC1Cc2c(cnn2-c2ccccc2)C2(CCN(CCc3ccccc3)CC2)O1` (centres unmarked) [Example 16, 6′-Methoxy-1′-phenyl-1-(2-phenylethyl)-6′,7′-dihydro-1′H-spiro[piperidin-4,4′-pyrano[4,3-c]pyrazole]] were, in that order, 570 nM and 2.73 nM.
Consider `COC1Cc2c(cnn2-c2ccccc2)C2(CCN(CCCc3ccccc3)CC2)O1` (centres unmarked) [Example 17, 6′-Methoxy-1′-phenyl-1-(3-phenylpropyl)-6′,7′-dihydro-1′H-spiro[piperidin-4,4′-pyrano[4,3-c]pyrazole]], for which the Ki turned out to be 833 nM at σ2-receptor and 3.24 nM on σ1-receptor [1].
For the compound `COc1ccc(CN2CCC3(CC2)OC(OC)Cc2c3cnn2-c2ccccc2)cc1` (centres unmarked) [Example 20, 6′-Methoxy-1-(4-methoxybenzyl)-1′-phenyl-6′,7′-dihydro-1′H-spiro[piperidin-4,4′-pyrano[4,3-c]pyrazole]], the Ki at σ2-receptor came out at 925 nM; at σ1-receptor [1], 1.54 nM.
Regarding `COC1Cc2c(cnn2C)C2(CCN(Cc3ccccc3)CC2)O1` (centres unmarked) [Example 22, 1-Benzyl-6′-methoxy-1′-methyl-6′,7′-dihydro-1′H-spiro[piperidin-4,4′-pyrano[4,3-c]pyrazole]], at σ2-receptor, the inhibition at 1 µM turned out to be 0%. Further, affinity at σ1-receptor [1] was put at a Ki of 21.4 nM.
Turning to `COC1Cc2c(cnn2C)C2(CCN(CCCc3ccccc3)CC2)O1` (centres unmarked) [Example 24, 6′-Methoxy-1′-methyl-1-(3-phenylpropyl)-6′,7′-dihydro-1′H-spiro[piperidin-4,4′-pyrano[4,3-c]pyrazole]], the figures for the Ki at σ2-receptor and on σ1-receptor [1] were 1730 nM and 92.7 nM, respectively.
`COC1Cc2c(cnn2C)C2(CCN(Cc3ccc(F)cc3)CC2)O1` (centres unmarked) [Example 25, 1-(4-Fluorbenzyl)-6′-methoxy-1′-methyl-6′,7′-dihydro-1′H-spiro[piperidin-4,4′-pyrano[4,3-c]pyrazole]] returned an inhibition at 1 µM at σ2-receptor of 46%. The compound also displayed an inhibitory constant (Ki) on σ1-receptor [1] of 21.1 nM.
The like results for `COC1Cc2c(cnn2C)C2(CCN(CCC(C)C)CC2)O1` (centres unmarked) [Example 26, 1-Isopentyl-6′-methoxy-1′-methyl-6′,7′-dihydro-1′H-spiro[piperidin-4,4′-pyrano[4,3-c]pyrazole]] were, in that order, 22% and 17.8 nM.
In turn, `CCCN1CCC2(CC1)OC(OC)Cc1c2cnn1C` (centres unmarked) [Example 27, 6′-Methoxy-1′-methyl-1-propyl-6′,7′-dihydro-1′H-spiro[piperidin-4,4′-pyrano[4,3-c]pyrazole]] showed an inhibition at 1 µM at σ2-receptor of 0%.
As to `Cn1ncc2c1CC(O)OC21CCN(Cc2ccccc2)CC1` (centres unmarked) [Example 28, 1-Benzyl-1′-methyl-6′,7′-dihydro-1′H-spiro[piperidin-4,4′-pyrano[4,3-c]pyrazole]-6′-ol], at 1 µM the inhibition on σ2-receptor was 21%. At σ1-receptor [1], this compound came in with a Ki of 190 nM.
As to `Cn1ncc2c1C=COC21CCN(Cc2ccccc2)CC1` [Example 29, 1-Benzyl-1′-methyl-1′H-spiro[piperidin-4,4′-pyrano[4,3-c]pyrazole]], the Ki stood at 429 nM on σ2-receptor and 11.8 nM on σ1-receptor [1].
The like results for `Cn1ncc2c1CCOC21CCN(Cc2ccccc2)CC1` [Example 30, 1-Benzyl-1′-methyl-6′,7′-dihydro-1′H-spiro[piperidin-4,4′-pyrano[4,3-c]pyrazole]] were, in that order, 191 nM and 9.18 nM.
Take `OC1Cc2c(cnn2-c2ccccc2)C2(CCN(Cc3ccccc3)CC2)O1` (centres unmarked) [Example 32, 1-Benzyl-1′-phenyl-6′,7′-dihydro-1′H-spiro[piperidin-4,4′-pyrano[4,3-c]pyrazole]-6′-ol]: testing at 1 µM at σ2-receptor gave an inhibition of 41%. The affinity on σ1-receptor [1] corresponds to a Ki of 27.1 nM.
`C1=Cc2c(cnn2-c2ccccc2)C2(CCN(Cc3ccccc3)CC2)O1` [Example 33, 1-Benzyl-1′-phenyl-1′H-spiro[piperidin-4,4′-pyrano[4,3-c]pyrazole]]: the inhibitory constant (Ki) on σ2-receptor is 557 nM; on σ1-receptor [1], 1.48 nM.
For `c1ccc(CN2CCC3(CC2)OCCc2c3cnn2-c2ccccc2)cc1` [Example 34, 1-Benzyl-1′-phenyl-6′,7′-dihydro-1′H-spiro[piperidin-4,4′-pyrano[4,3-c]pyrazole]], in that order: 773 nM and 1.71 nM.
Regarding `CC(C)CCN1CCC2(CC1)OCCc1c2cnn1-c1ccccc1` [Example 35, 1-Isopentyl-1′-phenyl-6′,7′-dihydro-1′H-spiro[piperidin-4,4′-pyrano[4,3-c]pyrazole]], the Ki came to 83.3 nM on σ2-receptor and 0.98 nM at σ1-receptor [1] (setting [3]).
With `CC(C)=CCN1CCC2(CC1)OCCc1c2cnn1-c1ccccc1` [Example 36, 1-(Methylbut-2-en-1-yl)-1′-phenyl-6′,7′-dihydro-1′H-spiro[piperidin-4,4′-pyrano[4,3-c]pyrazole]], the Ki at σ2-receptor is 269 nM; at σ1-receptor [1], 0.97 nM.
At σ2-receptor, `c1ccc(CCCN2CCC3(CC2)OCCc2c3cnn2-c2ccccc2)cc1` [Example 37, 1-Phenylpropyl-1′-phenyl-6′,7′-dihydro-1′H-spiro[piperidin-4,4′-pyrano[4,3-c]pyrazole]] displayed a Ki of 102 nM.
With `c1ccc(-n2ncc3c2CCOC32CCN(CC3CCCCC3)CC2)cc1` [Example 38, 1-(Cyclohexan-1-ylmethyl)-1-phenyl-6′,7′-dihydro-1′H-spiro[piperidin-4,4′-pyrano[4,3-c]pyrazole]], the values for the Ki at σ2-receptor and on σ1-receptor [1] (setting [3]) were 42.8 nM and 0.43 nM, respectively.
With `CC(C)CCN1CCC2(CC1)OCCc1c2cnn1C` [Example 39, 1-Isopentyl-1′-methyl-6′,7′-dihydro-1′H-spiro[piperidin-4,4′-pyrano[4,3-c]pyrazole]], at σ2-receptor, at 1 µM the inhibition was 27%. Besides, on σ1-receptor [1] (setting [3]), the Ki turned out to be 29.9 nM.
For the compound `CC(C)=CCN1CCC2(CC1)OCCc1c2cnn1C` [Example 40, 1-(Methylbut-2-en-1-yl)-1′-methyl-6′,7′-dihydro-1′H-spiro[piperidin-4,4′-pyrano[4,3-c]pyrazole]], the inhibition at 1 µM on σ2-receptor stood at 49%.
As for `Cn1ncc2c1CCOC21CCN(CCCc2ccccc2)CC1` [Example 41], the inhibition constant Ki on σ2-receptor worked out at 1070 nM; at σ1-receptor [1] (setting [3]), 17.4 nM.
